From publication PMC6151429 (Molecules : A Journal of Synthetic Chemistry and Natural …, 2017)
Several values for one entry are separate records, joined by “and”; a condition that tells them apart may be missing. Equal values may be shown once. Read-outs that look alike come from different tables or passages of the source.

Tests used:
[1] = molecular target: T1, Electric eel acetylcholinesterase (AChE) (Electrophorus electricus, UniProt O42275); assay: biochemical; conditions: for IC50: electric eel AChE, mean ± SEM of triplicate experiments; for SI, selective index (BChE/AChE): calculated from IC50 of BChE/AChE
T1 construct: purchased Sigma-Aldrich Co. (St. Louis, MO, USA)
Source text: (§1) Electric eel acetylcholinesterase (AChE, EC3.1.1.7), horse serum butyrylcholinesterase (BChE, EC 3.1.1.8), acetylthiocholine iodide (ACh), butyrylthioline chloride (BCh), 5,5′-dithobis [2-nitrobenzoic acid] […] The BACE1 FREF assay kit (β-secretase) was purchased from Pan Vera Co. (Madison, WI, USA). ONOO^− was purchased from Molecular Probes Cayman (Ann Arbor, MI, USA). All other chemicals and solvents used were purchased from E. Merck, Fluka, or Sigma- Aldrich, unless otherwise stated.
The inhibitory activity of the isolated coumarins toward ChE was measured using the spectrophotometric method developed by Ellman et al.. ACh and BCh were used as substrates to assay the inhibition of AChE and BChE, respectively. Each reaction mixture consisted of 140 µL sodium phosphate buffer (pH 8.0), 20 µL of test sample solution, and 20 µL of either AChE or BChE solution, which were then combined and incubated for 15 min at room temperature. […] Reactions were initiated upon addition of 10 µL of DTNB and 10 µL of either ACh or BCh. Enzymatic hydrolysis, mediated by AChE or BChE, was monitored according to the formation of yellow 5-thio-2-nitrobenzoate anions at 412 nm for 15 min, which were generated by the reaction of DTNB with thiocholine released from ACh or BCh. All reactions were performed in 96-well plates in triplicate, and recorded using a microplate spectrophotometer (Molecular Devices, Sunnyvale, CA, USA).

human recombinant BACE1 [2] = molecular target: T2, human recombinant BACE1 (Homo sapiens, UniProt P56817); assay: In vitro BACE1 FRET enzyme assay; format: biochemical
T2 construct: purchased PanVera Co. (Madison, WI, USA)
Procedure: A BACE1 fluorescence resonance energy transfer (FRET) assay kit (β-secretase, human recombinant) was purchased from PanVera Co. (Madison, WI, USA). The assay was carried out according to the provided manual with slight modifications, as described in a previous study.

[3] = molecular target: T3, horse serum butyrylcholinesterase (BChE) (Equus caballus, UniProt P81908); assay: In vitro ChE enzyme assay (Ellman), BChE; format: biochemical; conditions: mean ± SEM of triplicate experiments
T3 construct: horse serum butyrylcholinesterase (BChE, EC 3.1.1.8); purchased Sigma-Aldrich Co. (St. Louis, MO, USA); host or cells: horse serum
Source text: as §1
The inhibitory activity of the isolated coumarins toward ChE was measured using the spectrophotometric method developed by Ellman et al.. ACh and BCh were used as substrates to assay the inhibition of AChE and BChE, respectively. Each reaction mixture consisted of 140 µL sodium phosphate buffer (pH 8.0), 20 µL of test sample solution, and 20 µL of either AChE or BChE solution, which were then combined and incubated for 15 min at room temperature. […] Enzymatic hydrolysis, mediated by AChE or BChE, was monitored according to the formation of yellow 5-thio-2-nitrobenzoate anions at 412 nm for 15 min, which were generated by the reaction of DTNB with thiocholine released from ACh or BCh. All reactions were performed in 96-well plates in triplicate, and recorded using a microplate spectrophotometer (Molecular Devices, Sunnyvale, CA, USA).

[4] = test system: ONOO−-mediated tyrosine nitration of BSA; assay: Inhibition of ONOO−-mediated protein tyrosine nitration (Western blot, 3-nitrotyrosine antibody); format: biochemical; conditions: pretreatment at 12.5–100 μM
Procedure: To determine the inhibitory effect of 2 against ONOO^−-induced tyrosine nitration, Western blot analysis was performed using a 3-nitrotyrosine antibody.
Figure 5 Effect of 2 on nitration of BSA by ONOO^−. A mixture of the compound and BSA was incubated at 25 °C for 10 min. After incubation of ONOO^− at 25 °C for 10 min, reactants were resolved by electrophoresis in a 10% SDS-polyacrylamide gel.
We evaluated ONOO^−-mediated protein tyrosine nitration using the method of Ali et al., with slight modifications. The tested concentration range of 2 was 12.5–100 µM.

human recombinant BACE1 [5] = molecular target: T2, human recombinant BACE1; assay: Kinetics of BACE1 inhibition (Lineweaver–Burk and Dixon plots); format: biochemical; conditions: for BACE1 inhibition type: determined using Dixon and Lineweaver–Burk plots; for Ki: determined using a Dixon plot, substrate 750, 375, 250 nM, read-out: BACE1 inhibition constant (Ki)
Procedure: Complementary kinetic methods were employed: Lineweaver–Burk and Dixon plots. The mechanism of BACE1 inhibition was evaluated by monitoring the effects of different concentrations of substrate (750, 375, and 250 nM). The test concentrations of 2 in BACE1 inhibition kinetic experiments were 0, 0.4, 2.0, and 10 µM, while those for 3 were 0, 25, 50, and 100 µM. Inhibition constants (Ki) were determined by interpreting the Dixon plot, where the value on the x-axis represents Ki.

[6] = human recombinant BACE1, mean ± SEM of triplicate experiments, read-out: IC50 BACE1

T2 sequence (P56817 46-501): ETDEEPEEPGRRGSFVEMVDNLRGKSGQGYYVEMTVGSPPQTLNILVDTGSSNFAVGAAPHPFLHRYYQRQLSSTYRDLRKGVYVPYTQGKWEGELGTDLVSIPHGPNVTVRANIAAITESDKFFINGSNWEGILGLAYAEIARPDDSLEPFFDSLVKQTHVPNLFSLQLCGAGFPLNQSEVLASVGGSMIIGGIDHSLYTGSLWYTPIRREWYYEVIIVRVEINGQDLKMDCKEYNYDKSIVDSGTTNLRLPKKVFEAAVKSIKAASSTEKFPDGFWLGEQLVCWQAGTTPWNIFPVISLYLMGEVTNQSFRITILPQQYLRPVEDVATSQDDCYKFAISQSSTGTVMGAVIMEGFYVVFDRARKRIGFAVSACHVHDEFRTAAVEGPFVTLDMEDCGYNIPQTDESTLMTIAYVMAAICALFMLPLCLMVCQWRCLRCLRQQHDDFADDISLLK
T1 sequence (O42275 24-633): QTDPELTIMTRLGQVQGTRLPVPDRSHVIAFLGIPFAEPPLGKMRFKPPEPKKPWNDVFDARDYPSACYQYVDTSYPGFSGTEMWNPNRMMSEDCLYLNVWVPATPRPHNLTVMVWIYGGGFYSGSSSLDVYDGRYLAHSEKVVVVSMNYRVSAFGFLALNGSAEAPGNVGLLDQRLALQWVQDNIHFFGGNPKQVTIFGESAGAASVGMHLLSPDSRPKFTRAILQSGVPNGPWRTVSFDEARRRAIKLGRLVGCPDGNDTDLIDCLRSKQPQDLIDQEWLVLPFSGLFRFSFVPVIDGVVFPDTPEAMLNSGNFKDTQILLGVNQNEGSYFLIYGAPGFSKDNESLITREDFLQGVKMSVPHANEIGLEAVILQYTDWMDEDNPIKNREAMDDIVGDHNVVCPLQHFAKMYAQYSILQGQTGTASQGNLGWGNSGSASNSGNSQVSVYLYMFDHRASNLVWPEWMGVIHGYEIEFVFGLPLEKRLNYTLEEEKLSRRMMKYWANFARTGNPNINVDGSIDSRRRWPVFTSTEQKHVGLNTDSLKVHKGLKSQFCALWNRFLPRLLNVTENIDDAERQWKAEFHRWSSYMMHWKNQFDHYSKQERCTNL
T3 sequence (P81908 whole entry): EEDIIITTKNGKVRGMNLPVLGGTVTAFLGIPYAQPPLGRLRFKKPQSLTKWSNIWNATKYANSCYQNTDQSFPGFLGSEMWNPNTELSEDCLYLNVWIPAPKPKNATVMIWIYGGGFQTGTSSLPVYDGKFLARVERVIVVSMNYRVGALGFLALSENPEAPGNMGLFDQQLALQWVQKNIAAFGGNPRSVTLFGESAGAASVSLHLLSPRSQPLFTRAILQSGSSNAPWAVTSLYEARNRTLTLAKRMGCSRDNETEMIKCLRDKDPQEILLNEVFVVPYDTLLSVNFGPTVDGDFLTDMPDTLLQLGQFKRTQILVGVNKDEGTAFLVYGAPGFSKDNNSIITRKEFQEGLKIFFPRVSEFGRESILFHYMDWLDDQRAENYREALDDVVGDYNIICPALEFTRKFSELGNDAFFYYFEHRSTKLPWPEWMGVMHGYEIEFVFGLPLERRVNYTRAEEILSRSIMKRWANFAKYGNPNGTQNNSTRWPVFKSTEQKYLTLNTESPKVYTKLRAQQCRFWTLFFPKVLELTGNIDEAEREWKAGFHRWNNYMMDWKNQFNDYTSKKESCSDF

Structure (SMILES): COc1ccc2cc3[n+](cc2c1OC)CCc1cc2c(cc1-3)OCO2 [Berberine, berberine, reference compound]
- IC50 ([1]; IC50 AChE): < 0.32 µM

Structure (SMILES): O=Cc1cc2ccc(=O)oc2cc1O [Compound 2, 6-formyl umbelliferone]
- IC50 (human recombinant BACE1 [2]; [6]): 1.31 ± 0.01 µM
- IC50 [3]: 27.9 to 87.7 µM and 27.9 µM
- SI, selective index (BChE/AChE) [1]: 1.67
- IC50 ([1]; read-out: IC50 AChE): 16.7 to 19.1 µM and 16.7 µM
- Inhibition of ONOO−-mediated tyrosine nitration [4]: significant dose-dependent inhibition
- BACE1 inhibition type (human recombinant BACE1 [5]): noncompetitive-type inhibition
- Ki (human recombinant BACE1 [5]): 2.27 µM

Structure (SMILES): O=Cc1c(O)ccc2ccc(=O)oc12 [Compound 3, 8-formyl umbelliferone]
- IC50 (human recombinant BACE1 [2]; [6]): 39.82 ± 0.31 µM
- IC50 [3]: 27.9 to 87.7 µM and 87.7 µM
- SI, selective index (BChE/AChE) [1]: 4.58
- IC50 ([1]; read-out: IC50 AChE): 16.7 to 19.1 µM and 19.1 µM
- BACE1 inhibition type (human recombinant BACE1 [5]): noncompetitive-type inhibition
- Ki (human recombinant BACE1 [5]): 22.2 µM

Structure (SMILES): O=c1ccc2ccc(O)cc2o1 [Compound 1, umbelliferone]
- IC50 (human recombinant BACE1 [2]): 169 ± 2.17 µM
